Test results as given in ChEMBL document CHEMBL5653631, “A Potent and Selective ULK1 Inhibitor Suppresses Autophagy and Sensitizes Cancer Cells to Nutrient Stress” (iScience, 2018).

Assays:
[1] = target: Serine/threonine-protein kinase 24 (Homo sapiens) (UniProt Q9Y6E0); assay: Inhibition of human recombinant MST3 at 500 nM in presence of ATP by radiometric assay relative to control
[2] = target: Cyclin-dependent kinase-like 3 (Homo sapiens) (UniProt Q8IVW4); assay: Inhibition of human recombinant CDKL3 at 500 nM related to control ULK1
[3] = target: T1, Mitogen-activated protein kinase kinase kinase 5 (Homo sapiens) (UniProt Q99683); assay: Inhibition of human recombinant MAP3K5 at 500 nM related to control ULK1
T1 sequence (whole entry): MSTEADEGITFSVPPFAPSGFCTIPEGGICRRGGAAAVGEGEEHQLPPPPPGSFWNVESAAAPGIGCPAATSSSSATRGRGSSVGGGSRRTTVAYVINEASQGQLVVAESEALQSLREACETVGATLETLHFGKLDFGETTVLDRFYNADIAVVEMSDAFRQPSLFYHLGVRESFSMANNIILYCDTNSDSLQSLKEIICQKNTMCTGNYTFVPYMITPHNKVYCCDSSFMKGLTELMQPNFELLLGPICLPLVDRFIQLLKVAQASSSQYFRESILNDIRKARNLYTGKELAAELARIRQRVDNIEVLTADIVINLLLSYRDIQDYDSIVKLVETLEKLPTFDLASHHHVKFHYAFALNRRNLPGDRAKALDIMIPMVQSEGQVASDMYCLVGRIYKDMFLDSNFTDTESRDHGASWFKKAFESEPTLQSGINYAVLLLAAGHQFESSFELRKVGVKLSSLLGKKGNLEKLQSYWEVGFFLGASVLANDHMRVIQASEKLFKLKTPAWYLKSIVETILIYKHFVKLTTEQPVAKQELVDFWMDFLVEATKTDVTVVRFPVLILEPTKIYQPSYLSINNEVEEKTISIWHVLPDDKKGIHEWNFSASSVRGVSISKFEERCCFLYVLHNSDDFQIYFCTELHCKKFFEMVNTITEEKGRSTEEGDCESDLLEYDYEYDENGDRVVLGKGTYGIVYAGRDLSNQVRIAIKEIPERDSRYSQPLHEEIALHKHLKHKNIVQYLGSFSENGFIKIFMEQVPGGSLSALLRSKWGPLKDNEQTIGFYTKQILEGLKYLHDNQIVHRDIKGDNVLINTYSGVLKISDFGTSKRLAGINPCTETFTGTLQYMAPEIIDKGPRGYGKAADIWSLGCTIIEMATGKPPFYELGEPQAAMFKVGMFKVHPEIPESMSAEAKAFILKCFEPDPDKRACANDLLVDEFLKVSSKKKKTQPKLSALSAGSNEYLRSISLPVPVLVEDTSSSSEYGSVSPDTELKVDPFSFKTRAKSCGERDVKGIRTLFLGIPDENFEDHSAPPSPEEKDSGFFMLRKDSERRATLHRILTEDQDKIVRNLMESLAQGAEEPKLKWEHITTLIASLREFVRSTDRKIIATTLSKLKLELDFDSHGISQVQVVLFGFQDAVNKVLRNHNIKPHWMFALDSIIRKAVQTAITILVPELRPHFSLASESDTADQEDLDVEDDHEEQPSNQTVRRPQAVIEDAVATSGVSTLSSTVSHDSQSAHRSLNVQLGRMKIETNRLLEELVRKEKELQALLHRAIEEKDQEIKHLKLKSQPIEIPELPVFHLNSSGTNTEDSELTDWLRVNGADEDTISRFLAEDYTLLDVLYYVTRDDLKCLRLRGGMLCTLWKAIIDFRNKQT

[4] = target: T2, Testis-specific serine/threonine-protein kinase 2 (Homo sapiens) (UniProt Q96PF2); assay: Inhibition of human recombinant TSSK2 at 500 nM related to control ULK1
T2 sequence (whole entry): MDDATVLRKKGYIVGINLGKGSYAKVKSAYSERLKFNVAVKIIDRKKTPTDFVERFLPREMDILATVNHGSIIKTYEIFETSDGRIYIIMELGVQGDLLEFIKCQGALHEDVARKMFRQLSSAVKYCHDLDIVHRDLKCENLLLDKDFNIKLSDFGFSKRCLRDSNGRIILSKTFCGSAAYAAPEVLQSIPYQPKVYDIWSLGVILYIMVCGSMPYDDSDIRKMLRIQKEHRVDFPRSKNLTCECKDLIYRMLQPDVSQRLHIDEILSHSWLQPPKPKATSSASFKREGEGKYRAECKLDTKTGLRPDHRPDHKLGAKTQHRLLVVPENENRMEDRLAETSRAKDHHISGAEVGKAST

[5] = target: Tyrosine-protein kinase Fyn (Homo sapiens) (UniProt P06241); assay: Inhibition of human recombinant FYN at 15 nM in presence of ATP by radiometric assay relative to control
[6] = target: Epidermal growth factor receptor (Homo sapiens) (UniProt P00533); assay: Inhibition of human recombinant EGFR at 15 nM related to control ULK1
[7] = target: Fibroblast growth factor receptor 1 (Homo sapiens) (UniProt P11362); assay: Inhibition of human recombinant FGFR1 at 15 nM related to control ULK1
[8] = target: T3, MAPK/MAK/MRK overlapping kinase (Homo sapiens) (UniProt Q9UQ07); assay: Inhibition of human recombinant MOK at 40 nM in presence of ATP by radiometric assay relative to control
T3 sequence (whole entry): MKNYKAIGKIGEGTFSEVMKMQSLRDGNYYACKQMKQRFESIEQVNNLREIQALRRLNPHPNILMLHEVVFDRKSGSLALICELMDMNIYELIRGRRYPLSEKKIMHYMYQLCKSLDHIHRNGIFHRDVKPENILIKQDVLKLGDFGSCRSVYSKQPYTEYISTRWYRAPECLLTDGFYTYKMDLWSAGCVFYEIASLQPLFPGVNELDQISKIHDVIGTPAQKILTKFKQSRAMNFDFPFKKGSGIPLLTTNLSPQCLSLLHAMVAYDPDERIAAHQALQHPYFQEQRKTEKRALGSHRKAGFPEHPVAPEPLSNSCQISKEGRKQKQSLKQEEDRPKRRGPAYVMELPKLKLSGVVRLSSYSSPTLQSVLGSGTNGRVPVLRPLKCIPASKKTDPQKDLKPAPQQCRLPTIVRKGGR

[9] = target: Serine/threonine-protein kinase tousled-like 2 (Homo sapiens) (UniProt Q86UE8); assay: Inhibition of human recombinant TLK2 at 40 nM related to control ULK1
Serine/threonine-protein kinase tousled-like 2 (Homo sapiens), sequence (Q86UE8 whole entry, looked up): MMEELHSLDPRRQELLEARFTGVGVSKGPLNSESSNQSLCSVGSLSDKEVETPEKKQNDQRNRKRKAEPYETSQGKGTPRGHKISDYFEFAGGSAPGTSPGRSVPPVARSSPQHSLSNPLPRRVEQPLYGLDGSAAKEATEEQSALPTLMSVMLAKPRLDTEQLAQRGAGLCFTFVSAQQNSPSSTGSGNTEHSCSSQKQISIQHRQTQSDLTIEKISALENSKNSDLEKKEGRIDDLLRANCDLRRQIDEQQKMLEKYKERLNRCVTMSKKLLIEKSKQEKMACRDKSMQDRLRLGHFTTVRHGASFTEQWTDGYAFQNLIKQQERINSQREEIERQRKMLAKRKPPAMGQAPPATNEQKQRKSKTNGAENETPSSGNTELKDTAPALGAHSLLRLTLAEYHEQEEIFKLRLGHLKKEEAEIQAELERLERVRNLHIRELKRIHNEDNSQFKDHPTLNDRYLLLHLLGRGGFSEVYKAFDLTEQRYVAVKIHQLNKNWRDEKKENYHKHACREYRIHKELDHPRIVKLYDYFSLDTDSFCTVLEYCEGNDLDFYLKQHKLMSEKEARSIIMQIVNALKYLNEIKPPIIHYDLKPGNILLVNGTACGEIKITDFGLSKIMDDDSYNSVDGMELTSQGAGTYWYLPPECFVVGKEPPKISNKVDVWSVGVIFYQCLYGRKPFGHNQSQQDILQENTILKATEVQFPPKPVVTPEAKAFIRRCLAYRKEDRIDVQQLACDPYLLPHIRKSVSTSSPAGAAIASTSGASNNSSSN

Serine/threonine-protein kinase 24 (Homo sapiens), sequence (Q9Y6E0 whole entry, looked up): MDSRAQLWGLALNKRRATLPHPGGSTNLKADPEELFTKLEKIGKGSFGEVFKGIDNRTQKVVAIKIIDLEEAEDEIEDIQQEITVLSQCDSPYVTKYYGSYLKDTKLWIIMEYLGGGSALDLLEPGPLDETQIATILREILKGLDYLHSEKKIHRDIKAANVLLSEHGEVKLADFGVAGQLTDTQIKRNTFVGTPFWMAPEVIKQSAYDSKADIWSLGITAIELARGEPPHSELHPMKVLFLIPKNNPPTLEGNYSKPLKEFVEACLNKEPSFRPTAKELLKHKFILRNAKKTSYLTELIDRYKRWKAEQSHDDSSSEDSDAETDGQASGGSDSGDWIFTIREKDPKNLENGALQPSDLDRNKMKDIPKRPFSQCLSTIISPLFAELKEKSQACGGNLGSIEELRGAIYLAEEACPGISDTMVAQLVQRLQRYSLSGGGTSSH
Epidermal growth factor receptor (Homo sapiens), sequence (P00533 whole entry): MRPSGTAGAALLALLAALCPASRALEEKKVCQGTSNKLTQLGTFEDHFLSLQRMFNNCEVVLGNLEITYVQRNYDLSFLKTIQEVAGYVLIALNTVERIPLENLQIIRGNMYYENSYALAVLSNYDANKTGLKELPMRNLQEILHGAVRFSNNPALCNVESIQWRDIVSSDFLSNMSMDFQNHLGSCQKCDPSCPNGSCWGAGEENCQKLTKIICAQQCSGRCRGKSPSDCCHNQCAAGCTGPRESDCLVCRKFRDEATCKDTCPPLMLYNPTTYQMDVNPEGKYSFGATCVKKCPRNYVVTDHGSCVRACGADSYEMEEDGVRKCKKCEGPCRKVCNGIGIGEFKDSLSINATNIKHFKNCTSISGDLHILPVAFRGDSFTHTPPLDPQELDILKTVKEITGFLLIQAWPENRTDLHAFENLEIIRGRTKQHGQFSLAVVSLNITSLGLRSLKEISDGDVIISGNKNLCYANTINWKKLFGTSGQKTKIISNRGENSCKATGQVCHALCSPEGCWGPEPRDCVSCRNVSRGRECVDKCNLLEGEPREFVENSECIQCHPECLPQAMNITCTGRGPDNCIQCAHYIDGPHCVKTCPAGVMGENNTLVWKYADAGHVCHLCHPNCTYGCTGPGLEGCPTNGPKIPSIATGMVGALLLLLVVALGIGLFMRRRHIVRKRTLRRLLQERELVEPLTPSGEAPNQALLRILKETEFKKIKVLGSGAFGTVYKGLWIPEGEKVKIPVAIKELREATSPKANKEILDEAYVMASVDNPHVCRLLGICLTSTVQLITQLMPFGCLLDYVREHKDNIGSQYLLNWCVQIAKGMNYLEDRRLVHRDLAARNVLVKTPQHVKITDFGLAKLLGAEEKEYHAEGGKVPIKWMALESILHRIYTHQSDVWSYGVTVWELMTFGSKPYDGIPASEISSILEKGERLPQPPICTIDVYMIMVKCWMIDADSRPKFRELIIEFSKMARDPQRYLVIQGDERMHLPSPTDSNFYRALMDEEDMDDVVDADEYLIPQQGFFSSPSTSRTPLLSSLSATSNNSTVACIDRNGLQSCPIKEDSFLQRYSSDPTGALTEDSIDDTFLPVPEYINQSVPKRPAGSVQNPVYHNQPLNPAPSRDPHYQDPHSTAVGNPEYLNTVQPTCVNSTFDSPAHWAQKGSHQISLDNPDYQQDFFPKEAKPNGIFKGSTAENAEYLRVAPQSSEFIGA
Fibroblast growth factor receptor 1 (Homo sapiens), sequence (P11362 22-822 limits assumed): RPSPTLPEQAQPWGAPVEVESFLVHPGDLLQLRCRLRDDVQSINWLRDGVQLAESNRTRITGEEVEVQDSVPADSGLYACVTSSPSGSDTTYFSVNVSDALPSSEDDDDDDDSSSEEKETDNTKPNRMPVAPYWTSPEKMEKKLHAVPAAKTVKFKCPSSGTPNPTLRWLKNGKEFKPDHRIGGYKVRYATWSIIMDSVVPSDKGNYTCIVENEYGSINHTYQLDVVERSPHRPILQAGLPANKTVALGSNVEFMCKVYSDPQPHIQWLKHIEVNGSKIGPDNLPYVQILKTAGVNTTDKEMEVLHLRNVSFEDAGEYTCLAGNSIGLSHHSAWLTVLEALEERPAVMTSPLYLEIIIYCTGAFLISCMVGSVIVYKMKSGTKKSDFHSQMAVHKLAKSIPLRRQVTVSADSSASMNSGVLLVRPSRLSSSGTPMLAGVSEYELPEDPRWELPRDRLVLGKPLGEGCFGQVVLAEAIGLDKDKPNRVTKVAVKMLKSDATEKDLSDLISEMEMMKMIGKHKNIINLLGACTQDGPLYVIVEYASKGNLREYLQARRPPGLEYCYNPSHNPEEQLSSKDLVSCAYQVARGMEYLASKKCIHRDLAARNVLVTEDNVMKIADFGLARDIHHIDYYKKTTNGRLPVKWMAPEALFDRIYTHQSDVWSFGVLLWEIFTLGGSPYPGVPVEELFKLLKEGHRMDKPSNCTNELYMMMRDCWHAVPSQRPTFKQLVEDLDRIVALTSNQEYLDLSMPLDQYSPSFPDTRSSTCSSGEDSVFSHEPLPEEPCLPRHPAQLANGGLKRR
Cyclin-dependent kinase-like 3 (Homo sapiens), sequence (Q8IVW4 whole entry, looked up): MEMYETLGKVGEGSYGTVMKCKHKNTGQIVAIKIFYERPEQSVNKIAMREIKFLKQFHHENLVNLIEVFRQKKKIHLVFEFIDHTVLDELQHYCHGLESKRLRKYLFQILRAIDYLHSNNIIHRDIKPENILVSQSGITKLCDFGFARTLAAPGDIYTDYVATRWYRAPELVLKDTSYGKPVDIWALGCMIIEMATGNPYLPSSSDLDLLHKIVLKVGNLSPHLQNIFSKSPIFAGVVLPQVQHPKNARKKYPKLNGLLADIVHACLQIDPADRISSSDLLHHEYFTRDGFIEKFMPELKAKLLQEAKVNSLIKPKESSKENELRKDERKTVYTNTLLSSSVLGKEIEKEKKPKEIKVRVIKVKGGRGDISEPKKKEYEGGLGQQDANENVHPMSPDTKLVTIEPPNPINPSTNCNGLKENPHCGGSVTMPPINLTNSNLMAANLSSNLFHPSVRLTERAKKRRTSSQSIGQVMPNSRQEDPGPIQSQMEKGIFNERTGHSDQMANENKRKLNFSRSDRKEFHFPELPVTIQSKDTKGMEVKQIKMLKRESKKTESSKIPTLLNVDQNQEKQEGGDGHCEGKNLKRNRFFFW
Tyrosine-protein kinase Fyn (Homo sapiens), sequence (P06241 2-537 limits assumed): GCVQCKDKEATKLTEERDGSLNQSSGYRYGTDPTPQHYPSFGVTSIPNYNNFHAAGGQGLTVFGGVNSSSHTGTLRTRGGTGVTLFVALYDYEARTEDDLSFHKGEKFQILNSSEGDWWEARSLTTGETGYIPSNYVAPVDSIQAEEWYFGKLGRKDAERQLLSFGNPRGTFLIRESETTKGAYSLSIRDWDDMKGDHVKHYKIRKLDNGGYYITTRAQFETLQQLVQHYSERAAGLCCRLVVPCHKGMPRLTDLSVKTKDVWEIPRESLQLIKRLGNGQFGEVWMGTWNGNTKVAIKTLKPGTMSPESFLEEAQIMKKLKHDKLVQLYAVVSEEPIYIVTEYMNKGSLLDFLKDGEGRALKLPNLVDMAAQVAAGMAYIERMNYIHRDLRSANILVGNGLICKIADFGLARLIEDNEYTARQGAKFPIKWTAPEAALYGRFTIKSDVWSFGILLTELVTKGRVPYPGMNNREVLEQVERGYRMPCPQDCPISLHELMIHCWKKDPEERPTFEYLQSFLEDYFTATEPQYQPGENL

CNC(=O)c1ccccc1Oc1nc(Nc2cc(OC)c(OC)c(OC)c2)ncc1Br
inhibition [1]: 58% | fold change (FC) [2]: 0 | fold change (FC) [3]: 0 | fold change (FC) [4]: 0.03

CC(C)[C@H](NC(=O)c1cc(-c2cnn3cc(-c4ccc(OCCN5CCCCC5)cc4)cnc23)cs1)C(F)(F)F
inhibition [5]: 16% | fold change (FC) [6]: 0.03 | fold change (FC) [7]: 0

O=C(N[C@@H](C1CC1)C(F)(F)F)c1cc(-c2cnn3cc(-c4ccc(F)cc4)cnc23)cs1
inhibition [8]: 0% | fold change (FC) [9]: 0
